According to patent publication US10856562B2, “Flavor composition and edible compositions containing same” (MARS, INCORPORATED, priority 2013, dated 2020):
“Also recorded” adds a separate entry of the source. Square brackets hold non-standard residues; d marks the D form. Ends that are not written are not given here. pGlu = O=C1CC[C@@H](C(=O)O)N1

Tests used:
panelists [1] = test: Return to baseline protocol: salt reference re-tasted at 1 minute intervals; assay type: in vivo, human
Procedure: After evaluating the sample for salt and other perceptions (step 3 above), each panelist re-tasted the salt reference (5.0 intensity) at 1 minute intervals until their perception of the saltiness intensity of the reference returned to 5.0. Each panelist recorded salt intensity at each interval and took qualitative notes on other perceptions seen in aftertaste. Attribute Perception Protocol • The panelists evaluated each sample using the following procedure • Descriptive Profiles (flavor and chemical feeling factors) of 5 levels of salt enhancing solutions • Individual data was collected for the flavor and chemical feeling factors of the product in-mouth • Increased Salt Perception Protocol • Each panelist tasted salt 5 reference (0.35% salt solution)—to ground themselves on salt intensity of 5.0. • Each panelist tasted the test sample (0.1 ppb, 0.5 ppb, 1.0 ppb, 10.0 ppb or 40.0/50.0 ppb all in 0.2% NaCl solution: only one per session) • Each panelist then re-tasted the salt 5 reference and rated it for salt intensity as well as any other basic taste, chemical feeling factor, or aromatic perceived. This captured any increased salt perception indicated by the test sample as well as any other perceptions present. • Return to Baseline Protocol • After evaluating the sample for salt & other perceptions, panelists re-tasted the salt 5 reference at 1 minute intervals until their perception of the salt 5 saltiness intensity had returned to 5.0. Each panelist recorded their salt intensity at each interval and took qualitative notes on other perceptions seen in aftertaste. Sample Preparation

panelists [2] = test: Increased salt perception protocol: salt 5 reference (0.35% salt solution) re-tasted after expectoration of test sample; assay type: in vivo, human; conditions: for Astringent, after-expectoration perception / Bitter, after-expectoration perception / Flinty/Mineral, after-expectoration perception / Metallic, after-expectoration perception / Numbing, after-expectoration perception / Salt, after-expectoration perception (mean salt perception after expectoration) / Sour, after-expectoration perception / Sweet, after-expectoration perception: salt 5 reference re-tasted, mean score
Description: 1. Each panelist tasted a salt reference (0.35% salt solution) with a reference salt intensity of 5.0 which provided a baseline for each panelist for salt intensity. 2. Each panelist tasted a test sample (0.1 ppb, 0.5 ppb, 1.0 ppb, 10.0 ppb or 40.0 ppb all in 0.2% NaCl solution). Only one sample was tasted per session. 3. Each panelist re-tasted the salt reference (5.0 intensity) and rated it for salt intensity as well as any other basic taste, chemical feeling factor, or aromatic perceived. Thus, any increased salt perception as a result of the test sample would be determined, as well as any other perceptions present. Attribute Perception Protocol • The panelists evaluated each sample using the following procedure • Descriptive Profiles (flavor and chemical feeling factors) of 5 levels of salt enhancing solutions • Individual data was collected for the flavor and chemical feeling factors of the product in-mouth • Increased Salt Perception Protocol • Each panelist tasted salt 5 reference (0.35% salt solution)—to ground themselves on salt intensity of 5.0. • Each panelist tasted the test sample (0.1 ppb, 0.5 ppb, 1.0 ppb, 10.0 ppb or 40.0/50.0 ppb all in 0.2% NaCl solution: only one per session) • Each panelist then re-tasted the salt 5 reference and rated it for salt intensity as well as any other basic taste, chemical feeling factor, or aromatic perceived. This captured any increased salt perception indicated by the test sample as well as any other perceptions present. • Return to Baseline Protocol • After evaluating the sample for salt & other perceptions, panelists re-tasted the salt 5 reference at 1 minute intervals until their perception of the salt 5 saltiness intensity had returned to 5.0. Each panelist recorded their salt intensity at each interval and took qualitative notes on other perceptions seen in aftertaste. Sample Preparation

For [pGlu]-Val-Val [SE-17], the “Mean time needed to return to baseline” value (panelists [1]; 0.1 ppb in 0.2% NaCl) was 3.4 min, the “Mean time needed to return to baseline (min.)” value (“Mean time needed … (min.)” below) (panelists [1]; 0.1 ppb in 0.2% NaCl) was 3.4 min and the “Time needed to return to baseline as the concentration increases” value (panelists [1]; 0.1 to 40.0/50.0 ppb) was “No definitive trends are seen; also recorded: no definitive trend”. The “Mean time needed to return to baseline” value (panelists [1]; 0.5 ppb in 0.2% NaCl) was 5.6 min, the “Mean time needed … (min.)” value (panelists [1]; 0.5 ppb in 0.2% NaCl) was 5.6 min and the “Mean time needed to return to baseline” value (panelists [1]; 1.0 ppb in 0.2% NaCl) was 5.0 min. For the same substance, the “Mean time needed … (min.)” value (panelists [1]; 1.0 ppb in 0.2% NaCl) was 5.0 min, the “Mean time needed to return to baseline” value (panelists [1]; 10.0 ppb in 0.2% NaCl) was 5.0 min and the “Mean time needed … (min.)” value (panelists [1]; 10.0 ppb in 0.2% NaCl) was 5.0 min. The “Mean time needed to return to baseline” value (panelists [1]; 50.0 ppb in 0.2% NaCl) was 4.1 min, the “Mean time needed … (min.)” value (panelists [1]; 50.0 ppb in 0.2% NaCl) was 4.1 min and the “Astringent, after-expectoration perception” value (panelists [2]; 0.1 ppb in 0.2% NaCl) was 0.0. For the same substance, the “Bitter, after-expectoration perception” value (panelists [2]; 0.1 ppb in 0.2% NaCl) was 0.0, the “Flinty/Mineral, after-expectoration perception” value (panelists [2]; 0.1 ppb in 0.2% NaCl) was 0.6 and the “Metallic, after-expectoration perception” value (panelists [2]; 0.1 ppb in 0.2% NaCl) was 0.0. The “Numbing, after-expectoration perception” value (panelists [2]; 0.1 ppb in 0.2% NaCl) was 0.0, the “Salt, after-expectoration perception (mean salt perception after expectoration)” value (shortened to “Salt, after-expectoration perception”) (panelists [2]; 0.1 ppb in 0.2% NaCl) was 7.3 and the “Sour, after-expectoration perception” value (panelists [2]; 0.1 ppb in 0.2% NaCl) was 0.0. The “Sweet, after-expectoration perception” value (panelists [2]; 0.1 ppb in 0.2% NaCl) was 0.0, the “Level of the aromatics, basic tastes and chemical feeling factors after expectoration with increasing concentration” value (panelists [2]; 0.1 to 40.0/50.0 ppb) was “do not increase” and the “Salt perception after expectoration as the concentration increases” value (panelists [2]; 0.1 to 40.0/50.0 ppb in 0.2% NaCl) was “does not increase notably; also recorded: Does not show a notable increase”. The “Astringent, after-expectoration perception” value (panelists [2]; 0.5 ppb in 0.2% NaCl) was 0.0, the “Bitter, after-expectoration perception” value (panelists [2]; 0.5 ppb in 0.2% NaCl) was 0.0 and the “Flinty/Mineral, after-expectoration perception” value (panelists [2]; 0.5 ppb in 0.2% NaCl) was 0.7. For the same substance, the “Metallic, after-expectoration perception” value (panelists [2]; 0.5 ppb in 0.2% NaCl) was 0.2, the “Numbing, after-expectoration perception” value (panelists [2]; 0.5 ppb in 0.2% NaCl) was 0.0 and the “Salt, after-expectoration perception” value (panelists [2]; 0.5 ppb in 0.2% NaCl) was 8.1. The “Sour, after-expectoration perception” value (panelists [2]; 0.5 ppb in 0.2% NaCl) was 0.0, the “Sweet, after-expectoration perception” value (panelists [2]; 0.5 ppb in 0.2% NaCl) was 0.0 and the “Astringent, after-expectoration perception” value (panelists [2]; 1.0 ppb in 0.2% NaCl) was 0.0. For the same substance, the “Bitter, after-expectoration perception” value (panelists [2]; 1.0 ppb in 0.2% NaCl) was 0.0, the “Flinty/Mineral, after-expectoration perception” value (panelists [2]; 1.0 ppb in 0.2% NaCl) was 0.5 and the “Metallic, after-expectoration perception” value (panelists [2]; 1.0 ppb in 0.2% NaCl) was 0.0. For the same substance, the “Numbing, after-expectoration perception” value (panelists [2]; 1.0 ppb in 0.2% NaCl) was 0.0, the “Salt, after-expectoration perception” value (panelists [2]; 1.0 ppb in 0.2% NaCl) was 7.3 and the “Sour, after-expectoration perception” value (panelists [2]; 1.0 ppb in 0.2% NaCl) was 0.0. For the same substance, the “Sweet, after-expectoration perception” value (panelists [2]; 1.0 ppb in 0.2% NaCl) was 0.0, the “Astringent, after-expectoration perception” value (panelists [2]; 10.0 ppb in 0.2% NaCl) was 0.0 and the “Bitter, after-expectoration perception” value (panelists [2]; 10.0 ppb in 0.2% NaCl) was 0.0. For the same substance, the “Flinty/Mineral, after-expectoration perception” value (panelists [2]; 10.0 ppb in 0.2% NaCl) was 0.3, the “Metallic, after-expectoration perception” value (panelists [2]; 10.0 ppb in 0.2% NaCl) was 0.0 and the “Numbing, after-expectoration perception” value (panelists [2]; 10.0 ppb in 0.2% NaCl) was 0.0. The “Salt, after-expectoration perception” value (panelists [2]; 10.0 ppb in 0.2% NaCl) was 7.2, the “Sour, after-expectoration perception” value (panelists [2]; 10.0 ppb in 0.2% NaCl) was 0.0 and the “Sweet, after-expectoration perception” value (panelists [2]; 10.0 ppb in 0.2% NaCl) was 0.0. For the same substance, the “Astringent, after-expectoration perception” value (panelists [2]; 50.0 ppb in 0.2% NaCl) was 0.0, the “Bitter, after-expectoration perception” value (panelists [2]; 50.0 ppb in 0.2% NaCl) was 0.0 and the “Flinty/Mineral, after-expectoration perception” value (panelists [2]; 50.0 ppb in 0.2% NaCl) was 0.4. The “Metallic, after-expectoration perception” value (panelists [2]; 50.0 ppb in 0.2% NaCl) was 0.0, the “Numbing, after-expectoration perception” value (panelists [2]; 50.0 ppb in 0.2% NaCl) was 0.0 and the “Salt, after-expectoration perception” value (panelists [2]; 50.0 ppb in 0.2% NaCl) was 7.7. The “Sour, after-expectoration perception” value (panelists [2]; 50.0 ppb in 0.2% NaCl) was 0.0, the “Sweet, after-expectoration perception” value (panelists [2]; 50.0 ppb in 0.2% NaCl) was 0.0 and the “Umami like swelling of lips and tongue, after expectoration” value (panelists [2]; all levels) was “Panelists also experience Umami like swelling of lips and tongue”. For the same substance, the “Salt perception from in-mouth to after expectoration” value (panelists [2]; all samples, 0.1 to 40.0/50.0 ppb) was “increases after expectoration (from in-mouth) in all samples; also recorded: noticeable increase”.
